Data: paper PMC3664642, “A Peptide against Soluble Guanylyl Cyclase α1: A New Approach to Treating Prostate Cancer” (PLoS ONE, 2013)
Entries after “also recorded” stand apart in the source; their conditions may differ. Where no end group is shown, it is not given here.

Key:
CWR-22Rv1 cells = test: Proliferation/cytotoxicity, castration-resistant CWR-22Rv1 cells (MTT); assay type: cell-based; settings: different concentrations; Fig. 3C; averages of three independent experiments; P<0.03 vs Vehicle
Protocol: (§1) LNCaP, C81, PC-3 and Cos cells were grown as previously described. CWR-22Rv1 cells were cultured in RMPI-1640 medium with 10% FBS and 50 µg/ml Gentamicin (Gibco). Control siRNA, sGCα1 siRNA and AKT siRNA (Dharmacon) at 50 nM final concentration was transfected into cells using Lipofectamine siMAX (Invitrogen).
(§2) For proliferation, cells were grown in medium containing 2% FBS extracted with dextran-coated charcoal (DCC). 48 hours later, ethanol or 1 nM R1881 was added to the cells followed by peptide treatment. The MTT assay (Sigma) was used as before to determine cell number. For apoptosis, 5000 cells were seeded in 96-well plates and treated with Vehicle (DMSO), Peptide A-8R (25 µM), Etoposide (50 µM) (Sigma) at different time points. The Caspase (3/7) activity was measured using Apo-ONE Homogeneous Caspase-3/7 assay kit (Promega). PARP cleavage was also used to measure apoptosis, and is described below.
Vehicle or different concentrations of Peptide A-8R or C-8R, as shown, was added to (A) hormone-dependent LNCaP cells grown in 2% serum without or with 1 nM R1881, (C) castration-resistant C81 or CWR-22Rv1 cells, or (E) sGCα1-deficient PC-3 or Cos cells. Cell number was measured after various days of incubation. Data points represent averages of three independent experiments plus standard deviations. […]

LNCaP cells = test: Proliferation/cytotoxicity, LNCaP cells (MTT); assay type: cell-based; settings: different concentrations, averages of three independent experiments
Protocol: as §1, §2
(A) Four peptides were designed targeting sGCα1, with each peptide containing eight arginines at the C-terminus for membrane translocation. (B) LNCaP cells were grown in 10% serum under different concentrations of the four peptides, as shown. Cell number was measured after 0–4 days of incubation. Data points represent averages of three independent experiments plus standard deviations. Asterisks indicate statistical significance (P<0.0002) of Peptide A activity, relative to Vehicle.
Figure 2 Peptide A-8R interacts with sGCα1 in prostate cancer cells. (A) LNCaP cells were treated with 25 µM Biotin-labeled Peptide A-8R for 2 hrs and subjected to immunocytochemistry using anti-sGCα1 or anti-Biotin antibody to measure subcellular co-localization of endogenous sGCα1 and Peptide A-8R. DAPI was used to stain nuclei. (B) LNCaP cytosolic extracts were incubated with Peptide A-8R-Biotin and subjected to purification using streptavidin-agarose. This pull-down experiment was repeated with competing excess amount of unlabeled Peptide C-8R or Peptide A-8R. […] Co-purified Peptide A-8R-FITC was quantified by measuring fluorescence signal emission. […] Cell number was measured after 0–48 hrs of incubation. […]

[1] = system: Caspase 3/7 activity in Cos cells; test: Caspase 3/7 assay, Cos cells; assay type: cell-based, African green monkey; settings: 10 µM; 0–24 hrs; Fig. 5C
Protocol: as §2
Figure 5 Peptide A-8R induces apoptosis of prostate cancer cells. (A) LNCaP, (B) PC-3, or (C) Cos cells were treated with Vehicle, Peptide A-8R (10 µM), or Etoposide (20 µM) for 0–24 hrs and subjected to a Caspase assay to measure apoptosis. Bar graphs represent averages of three independent experiments plus standard deviations. All activities are relative to the first condition, and this activity was set to 1. Asterisks indicate statistical significance (P<0.005). (D) LNCaP cells were treated with Vehicle, Peptide C-8R, Peptide A-8R, or Etoposide (each drug at 50 µM) for 8 hrs and monitored for apoptosis by measuring PARP cleavage using Western blotting. Note that β-actin was used to control for protein loading.

[2] = system: ROS generation in LNCaP cells; test: ROS generation (CM-H2DCFDA), LNCaP/C81 cells; assay type: cell-based; settings: Fig. 4A
Protocol: Intracellular ROS levels were evaluated using the fluorescent probe 5-(and-6)-chloromethyl-2′,7′-dichlorodihydrofluorescein diacetate (CM-H2DCFDA) (Invitrogen). After treatments with Peptide A-8R, C81 cells were loaded with 20 µM CM-H2DCFDA and incubated at 37°C for 30 min in the dark. Cells were then washed with PBS and fluorescence was measured at the excitation and emission wavelengths of 490 and 535 nm, respectively, using a multi-well fluorescence plate reader. For NAC (N-acetyl cysteine) (Sigma) rescue experiment, cells were pretreated with 1 or 5 mM NAC for 2 hours before adding Peptide A-8R.
Figure 4 Peptide A-8R kills prostate cancer cells by mediating ROS generation. (A) C81 cells were treated with Vehicle or different µMolar concentrations of Peptide A-8R and without or with 0–5 mM NAC and monitored for ROS generation after 0–30 min as measured by fluorescence intensity (FI). Bar graphs represent averages of three independent experiments plus standard deviations. Note that asterisks on bar graphs found with NAC are compared to equivalent data without NAC. (B) C81 cells were treated with Vehicle or different concentrations of Peptide A-8R, as shown, and 0–5 mM NAC, as shown, and monitored for cell number after 0–6 days of incubation as measured by MTT assay. Data points represent averages of three independent experiments plus standard deviations. Asterisks indicate statistical significance (P<0.04). (C) C81 cells were treated with Vehicle or different concentrations of Peptide A-8R, as shown, and with or without 5 mM NAC, as shown, and monitored DNA damage after 1 hr incubation as measured by Comet assay.

## Ac-TFCKAFPFHIIRRRRRRRR [Peptide A-8R]
CWR-22Rv1 cells
  suppression of growth of CWR-22Rv1 cells: also effective on another hormone-refractory prostate cancer cell line, CWR-22Rv1 cells
LNCaP cells; 10% serum, 0–4 days, Fig. 1B, P<0.0002 Peptide A vs Vehicle
  cytotoxic activity / cell number, LNCaP: strong, dose-dependent, cytotoxic activity, killing nearly all cells by day 4; also recorded: strongly cytotoxic to prostate cancer cells
LNCaP cells; LNCaP, MTT, Fig. S2, P<0.005
  cytotoxic effect with or without 8-arginine sequence: strong cytotoxic effect
[1]
  induction of apoptosis, Cos: failed to induce apoptosis
[2]; 0–30 min, fluorescence 490/535 nm, S5B, averages of three independent experiments
  ROS induction: significant ROS induction in LNCaP cells within 30 minutes
[2]; 50 µM
  ROS generation at 50 µM: decreased with 50 µM; also recorded: minimal ROS induction; also recorded: lowest induction of ROS
[2]; 10 to 25 µM
  ROS generation, concentration dependence: rose when Peptide A-8R concentration was increased from 10 to 25 µM
